Test results as given in patent US20210348107A1, “DEVICE AND SYSTEMS COMPRISING ELECTRODE ARRAYS FOR ELECTROCONDUCTIVE CELLS” (UNIVERSITY OF WASHINGTON, priority 2018, published 2021).

Key:
nerve terminal = conditions: cited from earlier work
neurons = conditions: following spinal cord, head injury, and cerebral ischemia; by blocking excitotoxicity; cited from earlier work
human cells = conditions: cited from earlier work
ALS patients = conditions: cited from earlier work
CMT2 neurons [1] = assay: Acetylated α-tubulin levels in CMT2 neurons after HDAC6 inhibitor treatment; format: cell-based, human; conditions: data not shown
Excerpt: Treatment with this compound was also found to improve both the absolute velocity and the total number of moving axonal mitochondria. Decreased acetylated α-tubulin abundance is a characteristic feature of CMT2, and has been directly linked to severe axonal transport deficits in mouse models of the disease. […] The NMJ platform constitutes the ideal model for performing assessment of whether the reported changes result in restoration of WT NMJ phenotypes. Furthermore, the establishment of methods for screening compound action using this platform is translatable to other drug candidates and models of other neuropathic disease states.

CMT2 neurons [2] = assay: Live cell imaging of mitochondrial transport along axons of CMT2 iPSC motor neurons; format: cell-based, human
Protocol: Mitochondrial transport along axons is evaluated using live cell imaging of cultured neurons. Cells are infected with a lentiviral vector expressing mitochondrially targeted fluorescent probe dsRed (mito-dsRed) permitting real-time assessment of mitochondrial movement. Cells are placed within an environmental chamber mounted on an epifluorescent microscope and mitochondrial movement is recorded for 10 minutes with 3-second time-lapse intervals. Image analysis is performed with ImageJ, and Matlab code can be used, for example, to calculate mitochondrial velocity by measuring the distance between the position of individual mitochondria at the start and end of time-lapse recordings and dividing by the time elapsed. This provides a measure of overall transport velocity that includes anterograde and retrograde movements and stationary periods. Mitochondria are then classified as motile (velocity >0.1 μm s-1) or stationary (velocity ≤0.1 μm s-1), in line with disclosed methods (see e.g., Saporta et al. Experimental neurology. 2015; 263:190-9). Immunostaining is used to quantify mitochondrial density within the developing growth cone of cultured neurons as a means to evaluate the effect of altered transport on presynaptic development. To account for time dependent maturation, neurons are evaluated for all end-points following 1, 2, 3, and 4 weeks in culture. […]

## Nc1ccncc1N [3,4-diaminopyridine]
Nerve terminal
  acetylcholine release from the nerve terminal: enhances
  conduction in unmyelinated nerves: improves

## Cc1cccc(C)c1OCC(C)N (centres unmarked) [Mexiletine]
neurons
  protection of neurons: protective of neurons

## O=C(NCCO[N+](=O)[O-])c1cccnc1 [Nicorandil]
Human cells
  mitochondrial production of reactive oxygen species (ROS): limit mitochondrial production of reactive oxygen species

## Nc1nc2ccc(OC(F)(F)F)cc2s1 [Riluzole]
ALS patients
  prolongation of life: prolonging life by a few months

## CN1CCc2c(c3ccccc3n2Cc2ccc(C(=O)NO)cc2)C1 [Tubastatin A]
CMT2 neurons [1]
  levels of acetylated α-tubulin: significantly improved
CMT2 neurons [2]
  absolute velocity of moving axonal mitochondria: improve
  total number of moving axonal mitochondria: improve
